In patent US11884711B2, “Fusion proteins of GDF15 and use thereof” (BEIJING QL BIOPHARMACEUTICAL CO., LTD., priority 2020, dated 2024):

System: C57BL/6 mice
Experiment: In vivo food intake and body weight in C57BL/6 mice
Settings: 30 nmol/kg subcutaneously every day for 10 days
Method: 10 week old male C57BL/6 mice were injected everyday subcutaneously with 30 nmol/kg of the fusion proteins for 10 days (n=5/group), semaglutide was studied in parallel as a control. Body weight (BW) was measured daily for each individual animal and food intake was measured daily for each entire treatment group. Day 1 and Day 10 are the first day and the last day of treatment. % BW loss=100*(BW on Day n−BW on Day 1)/(BW on Day 1). Cumulative food intake on Day n represents sum of food intake from Day 1 to Day n. Data are indicated as mean values and standard error (SEM) or pooled values. Body weight reduction on Day 11 is calculated by −1*(% BW loss of treatment group-% BW loss of vehicle group); Cumulative food intake reduction on Day 11 is calculated by −100*(cumulative food intake of treatment group−cumulative food intake of vehicle group)/cumulative food intake of vehicle group.

With semaglutide [reference compound] the “Body weight reduction at 30 nmol/kg (% reduction compared to vehicle) (Day 11)” value was 7.27% and the “Cumulative food intake reduction at 30 nmol/kg (% reduction compared to vehicle) (Day 11)” value was 11.8%.
